Data reported in patent publication US8784782B2 (Senomyx, Inc., priority 2005, dated 2014).
Read-outs that look alike come from different tables or passages of the source.

Legend:
[1] = biological target: T1, hT1R1/hT1R3 umami receptor expressed in an HEK293 cell line (Homo sapiens, UniProt Q7RTX0+Q7RTX1); experiment: Umami taste enhancement activity assay (EC50 ratio vs. MSG, FLIPR); format: cell-based
T1 construct: expressed in transfected cells; host or cells: HEK293 cell line derivative, hT1R1/hT1R3-HEK293-Gα15, clone I-17, mifepristone-induced
T1 sequence (Q7RTX1 21-841): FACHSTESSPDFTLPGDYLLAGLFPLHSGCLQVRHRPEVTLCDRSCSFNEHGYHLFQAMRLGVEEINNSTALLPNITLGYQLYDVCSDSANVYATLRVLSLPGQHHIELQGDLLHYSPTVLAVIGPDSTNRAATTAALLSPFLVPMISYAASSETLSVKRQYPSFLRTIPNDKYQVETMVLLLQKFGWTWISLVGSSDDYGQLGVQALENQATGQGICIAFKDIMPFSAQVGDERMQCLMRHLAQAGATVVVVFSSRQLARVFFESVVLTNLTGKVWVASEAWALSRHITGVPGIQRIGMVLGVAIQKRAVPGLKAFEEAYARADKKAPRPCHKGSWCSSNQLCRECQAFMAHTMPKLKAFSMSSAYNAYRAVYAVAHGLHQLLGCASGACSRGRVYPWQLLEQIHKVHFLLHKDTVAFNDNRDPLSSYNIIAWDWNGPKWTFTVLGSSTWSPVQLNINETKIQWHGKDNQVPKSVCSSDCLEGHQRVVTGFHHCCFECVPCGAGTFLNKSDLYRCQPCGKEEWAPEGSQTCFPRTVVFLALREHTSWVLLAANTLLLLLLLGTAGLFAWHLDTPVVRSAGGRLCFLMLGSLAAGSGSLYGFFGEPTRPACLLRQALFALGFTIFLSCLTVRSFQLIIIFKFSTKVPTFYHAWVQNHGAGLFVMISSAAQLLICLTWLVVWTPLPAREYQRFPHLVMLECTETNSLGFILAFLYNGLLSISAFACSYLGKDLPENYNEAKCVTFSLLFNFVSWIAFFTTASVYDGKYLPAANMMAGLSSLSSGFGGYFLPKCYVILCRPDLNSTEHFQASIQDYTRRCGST
T1 sequence (Q7RTX0 21-852): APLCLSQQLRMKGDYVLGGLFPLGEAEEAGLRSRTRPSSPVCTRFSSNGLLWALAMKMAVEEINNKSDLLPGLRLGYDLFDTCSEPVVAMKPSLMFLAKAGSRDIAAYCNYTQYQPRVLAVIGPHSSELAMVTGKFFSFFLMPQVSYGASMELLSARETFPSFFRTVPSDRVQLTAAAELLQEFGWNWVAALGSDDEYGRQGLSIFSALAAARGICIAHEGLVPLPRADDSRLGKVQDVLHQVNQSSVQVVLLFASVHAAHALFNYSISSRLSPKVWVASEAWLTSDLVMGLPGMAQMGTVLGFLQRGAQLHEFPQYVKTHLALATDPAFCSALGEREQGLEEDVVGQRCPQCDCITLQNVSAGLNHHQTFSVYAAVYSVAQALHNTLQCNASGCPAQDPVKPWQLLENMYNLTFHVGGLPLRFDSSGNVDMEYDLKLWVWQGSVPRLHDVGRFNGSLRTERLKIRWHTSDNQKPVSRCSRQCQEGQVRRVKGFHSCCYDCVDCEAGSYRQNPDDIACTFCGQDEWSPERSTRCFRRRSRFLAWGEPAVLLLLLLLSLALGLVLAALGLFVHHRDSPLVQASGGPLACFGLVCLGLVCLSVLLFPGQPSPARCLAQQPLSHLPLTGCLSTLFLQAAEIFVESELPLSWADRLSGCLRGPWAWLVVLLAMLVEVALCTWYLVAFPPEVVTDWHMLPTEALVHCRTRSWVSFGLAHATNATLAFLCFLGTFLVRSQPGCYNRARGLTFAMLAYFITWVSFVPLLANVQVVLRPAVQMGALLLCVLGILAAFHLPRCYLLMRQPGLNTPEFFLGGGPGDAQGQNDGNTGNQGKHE
Description: A series of measurements of the dose response is run in solutions comprising MSG alone, then a second dose response is run with MSG in combination with predetermined amounts of a candidate compound of Formula (I) at the same time.
Typical compound concentrations tested were 30 μM, 10 μM, 3 μM, 1 μM, 0.3 μM, 0.1 μM and 0.03 μM. The relative efficacy of compounds of Formula (I) at enhancing the receptor was determined by calculating the magnitude of a shift in the EC50 for monosodium glutamate. Enhancement was defined as a ratio (EC50R) corresponding to the EC50 of monosodium glutamate, determined in the absence of the test compound, divided by the EC50 of monosodium glutamate, determined in the presence of the test compound.
Stated alternatively, “EC50 ratio” as compared to MSG is calculated based on the following definitions: EC50 Ratio vs. MSG=EC50 (MSG)/EC50 (MSG+[Compound]) • wherein “[compound]” refers to the concentration of the compound of Formula (I) used to elicit (or enhance or potentiate) the MSG dose response.

[2] = biological target: T1, hT1R1/hT1R3 umami receptor expressed in an HEK293 cell line; experiment: In vitro hT1R1/hT1R3 umami taste receptor activation assay (FLIPR, dose response); format: cell-based
Description: Activity was determined using an automated fluorometric imaging assay on a FLIPR instrument ([…], Molecular Devices, Sunnyvale, Calif.) (designated FLIPR assay). […] After replacement with 25 μl D-PBS, stimulation was performed in the FLIPR instrument and at room temperature by the addition of 25 μl D-PBS supplemented with different stimuli at concentrations corresponding to twice the desired final level. Receptor activity was quantified by determining the maximal fluorescence increases (using a 480 nm excitation and 535 nm emission) after normalization to basal fluorescence intensity measured before stimulation.
Activities were normalized to the response obtained with 60 mM monosodium glutamate, a concentration that elicits maximum receptor response.

[3] = read-out: EC50 for activation of a hT1R1/hT1R3 umami receptor expressed in an HEK293 cell line
[4] = Table A, triazoles, read-out: Umami EC50
[5] = Table B, pyridazines, read-out: Umami EC50

| SMILES | EC50 [2, 3] [nM] | EC50 [2, 4] [nM] | further results |
| --- | --- | --- | --- |
| COc1cc(C)ccc1-c1nc(SCc2ccccn2)n[nH]1 [Example 1, 2-((5-(2-methoxy-4-methylphenyl)-1H-1,2,4-triazol-3-ylthio)methyl)pyridine] | 80 | – | EC50 ratio (enhanced the effectiveness of monosodium glutamate) ([1]; compound present at 0.03 μM): 5.9 |
| COc1cc(C)ccc1-c1nc(SCc2ccc(C)cn2)n[nH]1 [Example 2, 2-((5-(2-methoxy-4-methylphenyl)-1H-1,2,4-triazol-3-ylthio)methyl)-5-methylpyridine] | 490 | – | – |
| CCc1ccc(-c2nc(SCc3ccccn3)n[nH]2)cc1 [Example 4, 2-((5-(4-Ethylphenyl)-1H-1,2,4-triazol-3-ylthio)methyl)pyridine] | 140 | – | EC50 ratio (enhanced the effectiveness of monosodium glutamate) ([1]; compound present at 0.03 μM): 4.4 |
| Cc1cc(-c2nc(SCc3ccccn3)n[nH]2)oc1C [Example 5, 2-((5-(4,5-dimethylfuran-2-yl)-1H-1,2,4-triazol-3-ylthio)methyl)pyridine] | 580 | – | EC50 ratio (enhanced the effectiveness of monosodium glutamate) ([1]; compound present at 0.1 μM): 4.4 |
| c1ccc(CSc2n[nH]c(-c3cc4ccccc4o3)n2)nc1 [Example 6] | 2580 | – | EC50 ratio (enhanced the effectiveness of monosodium glutamate) ([1]; compound present at 0.1 μM): 2.88 |
| CCc1ccc(-c2nc(SCc3ccccn3)n[nH]2)c(C)c1 [Example 10, 2-((5-(4-Ethyl-2-methylphenyl)-1H-1,2,4-triazol-3-ylthio)methyl)pyridine] | 20 | – | – |
| Cc1ccc(-c2cn(Cc3ccccn3)nn2)cc1 [Example 11, 2-((4-p-Tolyl-1H-1,2,3-triazol-1-yl)methyl)pyridine] | 4660 | – | – |
| Cc1ccc(-c2cn(CCc3ccccn3)nn2)cc1 [Example 12, 2-(2-(4-p-Tolyl-1H-1,2,3-triazol-1-yl)ethyl)pyridine] | 16400 | – | – |
| Cc1ccc(-c2ccc(SCc3ccccn3)nn2)c(C)c1 [Example 13, 3-(2,4-Dimethylphenyl)-6-(pyridin-2-ylmethylthio)pyridazine] | 1500 | – | – |
| Cc1ccc(-c2ccc(SCc3ccccc3)nn2)c(C)c1 [Example 14, 3-(Benzylthio)-6-(2,4-dimethylphenyl)pyridazine] | 2700 | – | – |
| Cc1ccc(-c2ccc(OCc3ccccn3)nn2)c(C)c1 [Example 15, 3-(2,4-Dimethylphenyl)-6-(pyridin-2-ylmethoxy)pyridazine] | 6900 | – | – |
| Cc1ccc(-c2nnc(NCc3ccccn3)o2)c(C)c1 [Example 16, 5-(2,4-Dimethylphenyl)-N-(pyridin-2-ylmethyl)-1,3,4-oxadiazol-2-amine] | 10300 | – | – |
| Cc1ccc(-c2ccc(SCc3cccnc3)nn2)c(C)c1 [Example 17] | 15200 | – | – |
| CCc1ccc(-c2nc(SCc3ccccn3)n[nH]2)c(OC)c1 [Example 18, 2-((5-(4-ethyl-2-methoxyphenyl)-1H-1,2,4-triazol-3-ylthio)methyl)pyridine] | 50 | – | – |
| COc1ccc(-c2n[nH]c(SCc3ccccn3)n2)cc1 [Example A6, 2-((5-(4-methoxyphenyl)-2H-1,2,4-triazol-3-ylthio)methyl)pyridine] | – | 520 | – |
| Cc1cccc(-c2n[nH]c(SCc3ccccn3)n2)c1 [Example A8, 2-((5-m-tolyl-2H-1,2,4-triazol-3-ylthio)methyl)pyridine] | – | 940 | – |
| COc1ccc(-c2n[nH]c(SCc3ccc(C)cn3)n2)c(OC)c1 [Example A9, 2-((5-(2,4-dimethoxyphenyl)-2H-1,2,4-triazol-3-ylthio)methyl)-5-methylpyridine] | – | 1070 | – |
| c1ccc(CSc2nc(-c3cccc4c3OCO4)n[nH]2)nc1 [Example A11, 2-((5-(benzo[d][1,3]dioxol-4-yl)-2H-1,2,4-triazol-3-ylthio)methyl)pyridine] | – | 1350 | – |
| Clc1ccccc1-c1n[nH]c(SCc2ccccn2)n1 [Example A14, 2-((5-(2-chlorophenyl)-2H-1,2,4-triazol-3-ylthio)methyl)pyridine] | – | 2480 | – |
| Cc1ccoc1-c1n[nH]c(SCc2ccccn2)n1 [Example A21, 2-((5-(3-methylfuran-2-yl)-2H-1,2,4-triazol-3-ylthio)methyl)pyridine] | – | 9410 | – |
| COc1ccccc1-c1n[nH]c(SCCc2ccccn2)n1 [Example A22, 2-(2-(5-(2-methoxyphenyl)-2H-1,2,4-triazol-3-ylthio)ethyl)pyridine] | – | 7380 | – |
| Cn1c(Cc2ccccc2)nnc1SCc1ccc(Cl)c(Cl)c1 [Example A23, 3-benzyl-5-(3,4-dichlorobenzylthio)-4-methyl-4H-1,2,4-triazole] | – | 13000 | – |
| Cn1c(Cc2ccccc2)nnc1SCc1ccc(Cl)cc1Cl [Example A24, 3-benzyl-5-(2,4-dichlorobenzylthio)-4-methyl-4H-1,2,4-triazole] | – | 6050 | – |
| CCn1c(SCc2cccnc2)nnc1-c1cccc(C)c1 [Example A25, 3-((4-ethyl-5-m-tolyl-4H-1,2,4-triazol-3-ylthio)methyl)pyridine] | – | 13100 | – |
| CCn1c(SCc2cccnc2)nnc1-c1cc2ccccc2cc1O [Example A26, 3-(4-ethyl-5-(pyridin-3-ylmethylthio)-4H-1,2,4-triazol-3-yl)naphthalen-2-ol] | – | 1890 | – |
| Cn1c(Cc2ccsc2)nnc1SCc1ccc(Cl)cc1 [Example A27, 3-(4-chlorobenzylthio)-4-methyl-5-(thiophen-3-ylmethyl)-4H-1,2,4-triazole] | – | 7920 | – |
| c1ccc(CSc2ccc(-c3ccc4c(c3)OCCO4)nn2)nc1 [Example B1, 3-(2,3-dihydrobenzo[b][1,4]dioxin-yl)-6-(pyridin-2-ylmethylthio)pyridazine] | – | – | EC50 [2, 5]: 600 nM |
| COc1ccc(-c2ccc(SCc3ccccn3)nn2)cc1OC [Example B2, 3-(3,4-dimethoxyphenyl)-6-(pyridin-2-ylmethylthio)pyridazine] | – | – | EC50 [2, 5]: 1700 nM |
| c1cncc(CSc2ccc(-c3ccc4c(c3)OCCO4)nn2)c1 [Example B3, 3-(2,3-dihydrobenzo[b][1,4]dioxin-6-yl)-6-(pyridin-3-ylmethylthio)pyridazine] | – | – | EC50 [2, 5]: 8400 nM |
| CSc1ccc(-c2nnn(Cc3ccccn3)n2)cc1 [Example C1, 2-((5-(4-(methylthio)phenyl)-2H-tetrazol-2-yl)methyl)pyridine] | – | – | EC50 ([2]; Table C, tetrazole, read-out: Umami EC50): 5910 nM |
